Assay results taken from ChEMBL document CHEMBL4673209, “Discovery of a novel potent GPR40 full agonist” (Bioorg Med Chem Lett, 2018).
pEC50, pIC50: −log10 of the molar value. The source made the active and inactive calls. No cut-off for these calls is given here.

Legend:
[1] = Oral bioavailability in cynomolgus monkey; type: ADME, organism-based, Macaca fascicularis; settings: in vivo
Cytochrome P450 2C19 = Cytochrome P450 2C19 (Homo sapiens, UniProt P33261); assay: Inhibition of CYP2C19 (unknown origin); type: ADME
Cytochrome P450 2C19, sequence (P33261 whole entry): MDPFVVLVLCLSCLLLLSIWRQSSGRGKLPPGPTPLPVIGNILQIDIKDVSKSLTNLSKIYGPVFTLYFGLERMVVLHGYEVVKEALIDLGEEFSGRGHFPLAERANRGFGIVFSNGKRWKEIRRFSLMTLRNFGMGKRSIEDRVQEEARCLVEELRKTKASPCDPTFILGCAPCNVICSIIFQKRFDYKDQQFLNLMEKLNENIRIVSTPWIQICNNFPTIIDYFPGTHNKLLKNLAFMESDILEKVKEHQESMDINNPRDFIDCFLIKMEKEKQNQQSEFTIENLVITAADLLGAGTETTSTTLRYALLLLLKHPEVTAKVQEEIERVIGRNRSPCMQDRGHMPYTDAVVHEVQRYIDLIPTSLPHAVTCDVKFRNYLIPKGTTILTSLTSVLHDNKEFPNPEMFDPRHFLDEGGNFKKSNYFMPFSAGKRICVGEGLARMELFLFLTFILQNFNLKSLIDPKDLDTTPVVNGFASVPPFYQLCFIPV

Rattus norvegicus [2] = assay: Anti-glycemic activity in fasted Sprague-Dawley ZDF rat assessed as increase in insulin secretion by measuring insulin level in plasma at 1 mg/kg administered 30 mins prior to glucose challenge measured after 140 mins by OGTT; type: functional; settings: time 170 min, 2.833 h
Cytochrome P450 2D6 = Cytochrome P450 2D6 (Homo sapiens, UniProt P10635); assay: Inhibition of CYP2D6 (unknown origin); type: ADME
Cytochrome P450 2D6, sequence (P10635 whole entry): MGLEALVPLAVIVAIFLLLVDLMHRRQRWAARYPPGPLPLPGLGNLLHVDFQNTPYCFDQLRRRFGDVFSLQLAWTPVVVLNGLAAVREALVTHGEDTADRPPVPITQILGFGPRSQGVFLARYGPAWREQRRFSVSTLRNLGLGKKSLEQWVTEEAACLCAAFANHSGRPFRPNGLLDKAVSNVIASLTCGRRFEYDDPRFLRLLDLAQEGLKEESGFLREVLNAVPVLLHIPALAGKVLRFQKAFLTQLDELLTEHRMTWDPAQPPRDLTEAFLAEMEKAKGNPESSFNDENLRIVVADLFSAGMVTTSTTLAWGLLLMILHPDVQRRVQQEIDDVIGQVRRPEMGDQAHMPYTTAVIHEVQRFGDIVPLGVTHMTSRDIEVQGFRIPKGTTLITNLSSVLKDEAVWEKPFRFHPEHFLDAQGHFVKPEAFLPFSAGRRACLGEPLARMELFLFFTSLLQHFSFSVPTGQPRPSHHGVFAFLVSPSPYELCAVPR

[3] = target: T1, Free fatty acid receptor 2 (Homo sapiens) (UniProt O15552); assay: Agonist activity at GPR43 (unknown origin)
T1 sequence (whole entry): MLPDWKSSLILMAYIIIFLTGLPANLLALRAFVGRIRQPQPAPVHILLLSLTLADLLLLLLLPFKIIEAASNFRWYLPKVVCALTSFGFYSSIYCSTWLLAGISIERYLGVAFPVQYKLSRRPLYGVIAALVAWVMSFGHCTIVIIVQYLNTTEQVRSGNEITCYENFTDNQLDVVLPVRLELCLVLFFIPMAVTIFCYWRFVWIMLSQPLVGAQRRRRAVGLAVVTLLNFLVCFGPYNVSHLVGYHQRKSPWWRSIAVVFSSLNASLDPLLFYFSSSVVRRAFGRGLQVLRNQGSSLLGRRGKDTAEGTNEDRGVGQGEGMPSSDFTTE

Mus musculus [4] = species on record: Mus musculus; assay: Anti-glycemic activity in C57 mouse assessed as reduction in blood glucose excursion measured for 120 mins by IPGTT; type: functional, organism-based
[5] = Intrinsic clearance in human assessed as half-life at 1 uM; type: ADME
[6] = target: Free fatty acid receptor 1 (Rattus norvegicus) (UniProt Q8K3T4); assay: Agonist activity at GPR40 receptor in rat INS1(832/13) cells assessed as induction of IP1 accumulation at 10 uM relative to AM1638; type: functional, cell-based; settings: INS-1 832/13, filed as agonist
Free fatty acid receptor 1 (Rattus norvegicus), sequence (Q8K3T4 whole entry): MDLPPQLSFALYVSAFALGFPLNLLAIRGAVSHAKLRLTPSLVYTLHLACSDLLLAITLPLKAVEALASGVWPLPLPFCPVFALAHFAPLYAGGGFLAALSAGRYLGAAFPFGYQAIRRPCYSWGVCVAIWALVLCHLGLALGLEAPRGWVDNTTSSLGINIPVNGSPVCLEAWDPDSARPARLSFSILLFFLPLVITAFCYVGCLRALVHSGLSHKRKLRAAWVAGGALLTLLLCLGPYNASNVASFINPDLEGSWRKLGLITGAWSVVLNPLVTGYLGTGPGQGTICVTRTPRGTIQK

[7] = target: T2, Free fatty acid receptor 1 (Homo sapiens, UniProt O14842); assay: Agonist activity at human GPR40 receptor expressed in CHOK1 cells assessed as induction of IP1 accumulation; type: functional, cell-based, CHO-K1
T2 sequence (O14842 whole entry): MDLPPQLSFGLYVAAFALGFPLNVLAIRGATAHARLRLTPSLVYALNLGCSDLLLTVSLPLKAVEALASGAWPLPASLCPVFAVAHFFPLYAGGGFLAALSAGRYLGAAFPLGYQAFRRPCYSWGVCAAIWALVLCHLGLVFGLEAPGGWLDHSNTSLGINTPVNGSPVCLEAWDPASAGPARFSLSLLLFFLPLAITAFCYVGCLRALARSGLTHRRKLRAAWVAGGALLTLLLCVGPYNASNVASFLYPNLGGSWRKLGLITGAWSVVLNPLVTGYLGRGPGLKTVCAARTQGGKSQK

[8] = Cmax in dog; type: ADME, Canis lupus familiaris; settings: in vivo
Rattus norvegicus [9] = assay: Anti-glycemic activity in fasted Sprague-Dawley ZDF rat assessed as increase in insulin secretion by measuring insulin level in plasma at 3 mg/kg administered 30 mins prior to glucose challenge measured after 140 mins by OGTT; type: functional; settings: time 170 min, 2.833 h
[10] = Protein binding in rat plasma; type: ADME, cell-free; settings: read-out: PPB (converted)
[11] = Oral bioavailability in rat; type: ADME, organism-based; settings: in vivo
[12] = Volume of distribution at steady state in rat; type: ADME; settings: in vivo, read-out: Vdss
[13] = Volume of distribution at steady state in dog; type: ADME, Canis lupus familiaris; settings: in vivo, read-out: Vdss
[14] = Hepatic clearance in human; type: ADME
[15] = target: T2, Free fatty acid receptor 1; assay: Agonist activity at human GPR40 receptor expressed in CHOK1 cells assessed as induction of IP1 accumulation at 10 uM relative to TAK875; type: functional, cell-based; settings: CHO-K1, filed as agonist
Cytochrome P450 3A4 = Cytochrome P450 3A4 (Homo sapiens, UniProt P08684); assay: Inhibition of CYP3A4 (unknown origin) using midazolam as substrate; type: ADME
Cytochrome P450 3A4, sequence (P08684 whole entry): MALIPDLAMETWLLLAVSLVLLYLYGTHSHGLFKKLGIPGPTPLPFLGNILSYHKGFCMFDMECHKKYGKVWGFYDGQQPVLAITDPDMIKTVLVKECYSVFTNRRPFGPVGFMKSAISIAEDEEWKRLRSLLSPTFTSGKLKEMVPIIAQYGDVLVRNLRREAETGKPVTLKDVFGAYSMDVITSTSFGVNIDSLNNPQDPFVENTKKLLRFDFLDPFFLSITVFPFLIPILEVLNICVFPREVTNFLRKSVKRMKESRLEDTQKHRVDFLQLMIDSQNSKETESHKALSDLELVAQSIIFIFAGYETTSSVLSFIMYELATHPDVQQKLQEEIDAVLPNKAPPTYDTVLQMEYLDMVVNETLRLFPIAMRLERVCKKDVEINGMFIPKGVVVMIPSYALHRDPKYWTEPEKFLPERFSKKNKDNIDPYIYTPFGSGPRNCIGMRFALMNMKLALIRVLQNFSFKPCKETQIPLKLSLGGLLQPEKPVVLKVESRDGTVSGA

Mus musculus [16] = assay: In vivo agonist activity at GPR40 in C57 mouse assessed as induction of GLP1 secretion at 100 mg/kg; type: functional, organism-based
Rattus norvegicus [17] = assay: Anti-glycemic activity in fasted Sprague-Dawley ZDF rat assessed as reduction in post-prandial hyperglycemia administered 30 mins prior to glucose challenge and measured for 120 mins by OGTT; type: functional; settings: 2.5 h, time 150 min, read-out: MED
Rattus norvegicus [18] = assay: Anti-glycemic activity in fasted Sprague-Dawley ZDF rat assessed as reduction in post-prandial hyperglycemia by measuring AUC(0 to 2 hrs) for blood glucose at 3 mg/kg administered daily for 8 days and measured on day 8 by OGTT; type: functional; settings: time 8 day
[19] = Hepatic clearance in rat; type: ADME; settings: in vivo
[20] = Protein binding in dog plasma; type: ADME, cell-free, Canis lupus familiaris; settings: read-out: PPB (converted)
Rattus norvegicus [21] = assay: Anti-glycemic activity in fasted Sprague-Dawley ZDF rat assessed as increase in insulin secretion by measuring insulin level in plasma administered 30 mins prior to glucose challenge measured after 140 mins by OGTT; type: functional, organism-based; settings: dose 1-10 mg/kg, time 170.0 min
[22] = target: Free fatty acid receptor 1 (Rattus norvegicus, UniProt Q8K3T4); assay: Agonist activity at GPR40 receptor in rat INS1(832/13) cells assessed as induction of IP1 accumulation; type: functional, cell-based, INS-1 832/13
Free fatty acid receptor 1 (Rattus norvegicus, UniProt Q8K3T4), sequence (Q8K3T4 whole entry): as the sequence (Q8K3T4 whole entry) above

[23] = Clearance in dog; type: ADME, Canis lupus familiaris; settings: in vivo
Rattus norvegicus [24] = assay: Anti-glycemic activity in fasted Sprague-Dawley ZDF rat assessed as reduction in post-prandial hyperglycemia by measuring AUC(0 to 2 hrs) for blood glucose at 10 mg/kg administered for 1 day and measured on day 1 by OGTT; type: functional

COc1cc(-c2ncc(COc3cccc([C@@H](CC(=O)O)C4CC4)c3)nc2CC(C)C)c(F)cn1
bioavailability [1]: 99.4% | pIC50 (Cytochrome P450 2C19): < 5.00 | Activity (Rattus norvegicus [2]): 1405 ng/mL | pIC50 (Cytochrome P450 2D6): < 5.00 | Activity [3]: inactive | Activity (Mus musculus [4]): Active | half-life at 1 µM [5]: 103 min | Activity [6]: 104% | pEC50 [7]: 6.05 | Cmax [8]: 1550 ng/mL | Activity (Rattus norvegicus [9]): 5275 ng/mL | fraction unbound [10]: 0.0009 | bioavailability [11]: 123% | Vd [12]: 0.384 L/kg | Vd [13]: 1.62 L/kg | CLH [14]: 8.9 mL/min/kg | Activity [15]: 354% | pIC50 (Cytochrome P450 3A4): 5.10 | Activity (Mus musculus [16]): Active | minimal effective dose (Rattus norvegicus [17]): 3 mg/kg | Activity (Rattus norvegicus [18]): 16769 ng/mL.hr | CLH [19]: 26.8 mL/min/kg | fraction unbound [20]: 0.0045 | Activity (Rattus norvegicus [21]): Dose-dependent effect | pEC50 [22]: 6.06 | clearance [23]: 8.36 mL/min/kg | Activity (Rattus norvegicus [24]): 37373 ng/mL.hr
